Laboratory results reported in US20120308562A1, “METHODS OF TREATING MESOTHELIOMA WITH A PI3K INHIBITOR COMPOUND” (priority 2011, published 2012).
Like-named read-outs stand apart in the source and are kept apart here.

Key:
[1] = Phase I clinical pharmacokinetics (plasma, LC-MS/MS); format: in vivo, human; conditions: for AUC(0-t): oral, individual patient, read-out: AUC0-24 h
Protocol: For Cycle 1 of the Phase I study, a single dose of GDC-0980 is administered to patients on Day 1 in a clinical setting that can accommodate frequent blood draws over a period of up to 48 hours after the dose is administered. Daily dosing will begin on Day 8 and continue for 21 days (Days 8-28), followed by a 7-day off-drug observation period (Days 29-35). Subsequent cycles will be 28 days in length (21 days of daily dosing followed by a 7-day observation period). Additional cohorts may be added to examine the tolerability of a 28-day dosing schedule with no observation period after the MTD is […] defined for the 21-day dosing schedule. GDC-0980 should be taken on an empty stomach (fasting) in the morning, unless otherwise instructed. For all patients Days 1 and 15 (PK sampling days), patients should be fasted overnight (at least 8-10 hours) prior to their dose on those days. On other days, patients should avoid consuming anything but water for 1 hour before and 2 hours after GDC-0980 administration. Each dose should be taken with a minimum of 3-4 ounces of water. […] PK: Plasma GDC-0980 concentrations were assayed by LC-MS/MS (Tandem Labs, Inc., Salt Lake City, Utah) with LLOQ 0.5 ng/mL and analyzed using noncompartmental analysis.

[2] = clearance in rodents; conditions: in vivo
[3] = system: MDA-MB-361.1 breast cancer xenograft; experiment: MDA-MB-361.1 breast cancer xenograft model; format: in vivo; conditions: QD
[4] = target: hERG (Homo sapiens, UniProt Q12809); experiment: hERG activity
[5] = stability in human microsomes; format: in vitro ADME
[6] = target: mTOR (Homo sapiens, UniProt P42345); experiment: biochemical
[7] = system: adrenal cortical cancer; experiment: Phase I tumor response by RECIST, adrenal cortical cancer patient; conditions: person, 40 mg QD, 28/28 day schedule
Protocol: (§1) Tumor assessments (CT and/or magnetic resonance imaging [MRI] scans) are performed approximately every 6 weeks irrespective of dose delays, interruptions, or reductions. Bone and brain scans (either CT or MRI) may be performed at baseline and if clinically indicated during the study. Patient management decisions were made based on tumor assessments performed by investigators. The primary study endpoints related to response were determined by an independent radiologic review of patient scans, with assessments based on investigator reporting being secondary. If each non-target lesion cannot be assessed at a follow-up tumor assessment timepoint, patients may still be considered evaluable for timepoint response as long as all target lesions are measured. Patients with non-target lesions that were not assessed at a timepoint were assessed as having a partial response, stable disease, or progressive disease. All lesions, target and non-target, were assessed before a response was considered confirmed. To reduce the frequency of unevaluable non-target lesions, bone lesions visible on baseline CT scan as non-target lesion(s) for follow-up, were compared with bone lesions identified on the baseline bone scan where possible if lesions are not visible on both modalities or as easily and reproducibly assessed. […]

[8] = clearance in dogs; conditions: dog, in vivo
[9] = system: solid tumors; experiment: Phase I best RECIST response and time on study, all enrolled patients; conditions: peritoneal mesothelioma and adrenal cancer patients
Protocol: as §1

[10] = in vivo
Protocol: (§2) Patients with a history of Type 1 or 2 diabetes mellitus requiring regular medication were excluded. GDC-0980 was administered on Day 1, followed by 1 week of washout to evaluate single-dose PK and PD markers. GDC-0980 was then dosed QD for either 21 days or 28 days every 28-day cycle. Tumor assessments were performed after Cycles 1, 2, and then every 2 cycles using RECIST guidelines. Optional FDG-PET was obtained between Days 22-28 and Days 50-57.
(§3) Fasted blood glucose & insulin were monitored at clinical visits (pre-dose & 2 hrs post-dose). Dosing with GDC-0980 was allowed with =G2 blood glucose with appropriate monitoring, i.e., additional monitoring in clinic and fingerstick glucose testing at home.
(§4) Safety Analyses: All patients who receive any amount of GDC-0980 therapy will be included in the safety analyses. Safety will be assessed through summaries of adverse events, deaths, and changes in laboratory test results. All adverse events for all patients will be collected for the safety dataset. Verbatim descriptions of adverse events will be mapped to thesaurus terms. All recorded adverse event data will be listed by study site, patient, and cycle. All adverse events occurring on or after the first treatment will be summarized by mapped term, appropriate thesaurus levels, and NCI CTCAE, v3.0 toxicity grade. All serious adverse events will be listed separately and summarized. In addition, the incidence of symptomatic CHF and/or LVEF <40% will be summarized. Deaths reported during the study treatment period and those reported during follow-up after patient treatment discontinuation will be summarized. Laboratory data will be summarized by grade using the NCI CTCAE, v3.0 toxicity grade. Changes in LVEF over time will be summarized and listed by scheduled measurement time. The occurrence of antibodies to GDC-0980 will be listed.

[11] = Phase I safety and tolerability
Protocol: as §2, §3, §4

[12] = system: mesothelioma; experiment: Phase I tumor response by RECIST, mesothelioma patients; conditions: person; for decrease in target lesions by RECIST: 21/28 day schedule
Protocol: Tumor assessments (CT and/or magnetic resonance imaging [MRI] scans) are performed approximately every 6 weeks irrespective of dose delays, interruptions, or reductions. Bone and brain scans (either CT or MRI) may be performed at baseline and if clinically indicated during the study. Patient management decisions were made based on tumor assessments performed by investigators. The primary study endpoints related to response were determined by an independent radiologic review of patient scans, with assessments based on investigator reporting being secondary. If each non-target lesion cannot be assessed at a follow-up tumor assessment timepoint, patients may still be considered evaluable for timepoint response as long as all target lesions are measured. Patients with non-target lesions that were not assessed at a timepoint were assessed as having a partial response, stable disease, or progressive disease. All lesions, target and non-target, were assessed before a response was considered confirmed. To reduce the frequency of unevaluable non-target lesions, bone lesions visible on baseline CT scan as non-target lesion(s) for follow-up, were compared with bone lesions identified on the baseline bone scan where possible if lesions are not visible on both modalities or as easily and reproducibly assessed.
Tumor assessments were performed after Cycles 1, 2, and then every 2 cycles using RECIST guidelines. Optional FDG-PET was obtained between Days 22-28 and Days 50-57.

[13] = system: MDA-MB-361.1 xenografts; experiment: nonclinical PK/PD model of tumor growth inhibition with predicted human PK; conditions: predicted human PK and nonclinical PD data, preliminary
Description: A nonclinical PK/PD model of tumor growth inhibition was developed using the indirect response model (Jusko W J. “Pharmacodynamics of chemotherapeutic effects: dose-time-response relationships for phase-nonspecific agents”, J Pharm Sci (1971) 60:892-5) to fit exposure and growth inhibition data based on four sets of experiments examining varying schedules and doses in the MDA-MB-361.1 xenografts. The PK/PD model was then used to predict minimal exposure needed to achieve 50% tumor growth inhibition, using the predicted human PK data and the nonclinical PD data. […] On the basis of MLP allometric scaling, a daily dose of approximately 18 mg may achieve this exposure. Dose escalation will continue until the MTD, even if 1.7 μM·hr exposure is surpassed and well tolerated, since it is well established that tumor xenograft models are not absolutely predictive of clinical response (Sausville and Burger 2006).

[14] = stability in human hepatocytes; format: in vitro ADME
[15] = system: pAKT (S473) in PRP; experiment: pAKT in platelet-rich plasma (MSD assay), Phase I; format: in vivo, human
Protocol: pAKT in PRP: Total AKT and pAKT (S473) in PRP were measured by Meso Scale Discovery (MSD) assay, and the percent change in pAKT relative to baseline was calculated.

[16] = system: MCF7-neo/HER2 cell line; experiment: MCF7-neo/HER2 cell line IC50; format: cell-based
[17] = pharmacokinetics after a single oral dose (species not given); format: in vivo; conditions: species not stated
[18] = human, plasma, patients, single oral dose

Chain of hERG (Q12809 whole entry): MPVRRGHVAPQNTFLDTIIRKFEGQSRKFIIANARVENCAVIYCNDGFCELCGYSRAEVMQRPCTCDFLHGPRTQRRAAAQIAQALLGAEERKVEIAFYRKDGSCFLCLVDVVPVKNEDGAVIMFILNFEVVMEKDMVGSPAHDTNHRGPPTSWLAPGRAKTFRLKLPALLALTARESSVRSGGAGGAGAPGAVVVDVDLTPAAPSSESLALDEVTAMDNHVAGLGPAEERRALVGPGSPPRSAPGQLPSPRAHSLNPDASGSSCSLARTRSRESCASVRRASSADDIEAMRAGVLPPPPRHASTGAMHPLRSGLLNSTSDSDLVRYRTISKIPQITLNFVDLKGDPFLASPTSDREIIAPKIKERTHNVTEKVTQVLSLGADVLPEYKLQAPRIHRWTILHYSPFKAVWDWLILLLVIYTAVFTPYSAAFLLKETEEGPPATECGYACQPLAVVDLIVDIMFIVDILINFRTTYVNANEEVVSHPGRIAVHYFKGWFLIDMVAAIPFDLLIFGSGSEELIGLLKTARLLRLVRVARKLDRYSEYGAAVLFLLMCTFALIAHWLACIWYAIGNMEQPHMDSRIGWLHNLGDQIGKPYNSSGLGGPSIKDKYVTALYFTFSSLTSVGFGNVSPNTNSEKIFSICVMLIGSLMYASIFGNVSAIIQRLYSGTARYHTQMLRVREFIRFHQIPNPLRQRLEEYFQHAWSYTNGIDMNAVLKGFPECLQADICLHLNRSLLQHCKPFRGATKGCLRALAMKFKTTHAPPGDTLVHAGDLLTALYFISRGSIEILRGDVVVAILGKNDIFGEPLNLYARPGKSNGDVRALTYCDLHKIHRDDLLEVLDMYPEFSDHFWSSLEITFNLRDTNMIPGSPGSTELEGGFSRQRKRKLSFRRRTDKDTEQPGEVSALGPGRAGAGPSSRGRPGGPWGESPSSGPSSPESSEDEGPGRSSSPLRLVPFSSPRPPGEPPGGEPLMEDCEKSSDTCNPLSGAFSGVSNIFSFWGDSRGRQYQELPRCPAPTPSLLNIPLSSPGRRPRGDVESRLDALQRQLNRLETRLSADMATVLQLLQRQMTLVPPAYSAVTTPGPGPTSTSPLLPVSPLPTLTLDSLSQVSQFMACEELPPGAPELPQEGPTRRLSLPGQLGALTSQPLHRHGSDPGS

Cc1c(CN2CCN(C(=O)[C@H](C)O)CC2)sc2c(N3CCOCC3)nc(-c3cnc(N)nc3)nc12 [GDC-0980, (S)-1-(4-((2-(2-aminopyrimidin-5-yl)-7-methyl-4-morpholinothieno[3,2-d]pyrimidin-6-yl)methyl)piperazin-1-yl)-2-hydroxypropan-1-one] gave an AUC(0-t) ([1]; human, plasma, 8 mg QD, 21/28 day schedule) of ~0.4 µM·h, an AUC(0-t) ([1]; human, plasma, 32 mg QD, 21/28 day schedule) of ~4.4 µM·h and an AUC(0-t) ([1]; human, plasma, 40 mg QD, 28/28 day schedule) of ~4.1 µM·h. The AUC(0-t) ([1]; human, plasma, 50 mg QD, 21/28 day schedule) was ~3 µM·h, the Tmax [1, 18] was ~2 h and the half-life [1, 18] was 6 to 18 h. For the same compound, the “dose dependence of AUC and Cmax” value ([1]; patients, single oral dose) was “dose-proportional increases”, the clearance [2] was 60 mL/min/kg and the “minimum dose producing significant growth inhibition” value [3] was 1.0 mg/kg. The IC50 [4] was > 100000 nM, the “stability in human microsomes” value [5] was “stable” and the Ki [6] was 17.3 nM. The “decrease in target lesions by RECIST” value ([7]; after 3 weeks of treatment in Cycle 2) was 39%, the “decrease in target lesions by RECIST” value ([7]; end of Cycle 1) was 22% and the clearance [8] was 12 mL/min/kg. The “number of patients still on study after a year” value [9] was 2, the “patients with increased blood glucose” value ([10]; human) was 83.3% and the “drug-related AEs that occurred in =10% of patients” value [10] was “fatigue, diarrhea, rash, nausea, decreased appetite, mucositis, hyperglycemia, vomiting, pruritus, GERD (Gastroesophageal reflux disease), and constipation”. The “number of patients with G3 increased blood glucose” value [10] was “Six”, the “dose at which the MTD was exceeded” value ([11]; QD, 21/28-day schedule) was 70 mg and the “G5 adverse event considered related to GDC-0980” value ([11]; metastatic colorectal cancer patient, 50 mg QD, about 1 week after starting Cycle 2) was “G5 adverse event of colitis”. For the same compound, the “time on study before progression of disease” value ([12]; epitheloid mesothelioma, 8 mg QD, 21/28) was “about 4.5 months”, the “decrease in target lesions by RECIST” value ([12]; epitheloid mesothelioma, PIK3CA R88Q, 8 mg QD, end of Cycle 2) was 26% and the “decrease in target lesions by RECIST” value ([12]; epitheloid pleural mesothelioma, 50 mg QD, end of Cycles 1 and 2) was 26%. The “decrease in target lesions by RECIST” value ([12]; peritoneal mesothelioma, 32 mg QD, end of Cycle 6) was 28%, the “minimal exposure (AUC) needed to achieve 50% tumor growth inhibition” value [13] was “approximately 1.7 μM·hr” and the “stability in human hepatocytes” value [14] was “stable”. The “decrease in pAKT in PRP” value ([15]; doses of 16 mg) was 90%, the “time for which significant inhibition of pAKT was maintained” value ([15]; doses of 50 mg) was 24 hours and the IC50 [16] was 320 nM. The half-life ([17]; in vivo, read-out: terminal half-life) was 6 to 18 h and the “dose dependence of AUC and Cmax” value [17] was “dose-proportional increases”.
